In patent US7037909B2, “Tetracyclic compounds as c-Met inhibitors” (Sugen, Inc., priority 2003, dated 2006):
Read-outs that look alike come from different tables or passages of the source.

Target: T1, c-MET (Homo sapiens, UniProt P08581)
T1 construct: Purified GST fusion protein containing the Met kinase domain, Sugen, Inc
Assay: MET Transphosphorylation Assay (ELISA, poly(Glu,Tyr) 4:1 substrate)
Assay type: biochemical
Experimental: MET Transphosphorylation Assay
This assay is used to measure phosphotyrosine levels on a poly(glutamic acid:tyrosine (4:1)) substrate as a means for identifying agonists/antagonists of met transphosphorylation of the substrate.
• 1. […] PBS, Gibco Catalog #450-1300EB • 4. 50 mM HEPES • 5. […] Purified GST fusion protein containing the Met kinase domain, Sugen, Inc. • 7. TBST Buffer. • 8. 10% aqueous (MilliQue H2O) DMSO. • 9. […] 2× Kinase Dilution Buffer: for 100 ml, mix 10 mL 1M HEPES at pH 7.5 with 0.4 mL 5% BSA/PBS, 0.2 mL 0.1M sodium orthovanadate and 1 mL 5M sodium chloride in 88.4 mL dH2O. • 11. 4× ATP Reaction Mixture: for 10 mL, mix 0.4 mL 1M manganese chloride and 0.02 mL 0.1M ATP in 9.56 mL dH2O. • 12. 4× Negative Controls Mixture: for 10 mL, mix 0.4 mL 1M manganese chloride in 9.6 mL dH2O. • 13. […] 500 mM EDTA. • 15. Antibody Dilution Buffer: for 100 mL, mix 10 mL 5% BSA/PBS, 0.5 mL 5% Carnation Instant Milk® in PBS and 0.1 mL 0.1M sodium orthovanadate in 88.4 mL TBST. • 16. Rabbit polyclonal antophosphotyrosine antibody, Sugen, Inc. • 17. Goat anti-rabbit horseradish peroxidase conjugated antibody, Biosource, Inc. • 18. ABTS Solution: for 1 L, mix 19.21 g citric acid, 35.49 g Na2HPO4 and 500 mg ABTS with sufficient dH2O to make 1 L. • 19. ABTS/H2O2: mix 15 mL ABST solution with 2 μL H2O2 five minutes before use. • 20. 0.2M HCl Procedure: • 1. Coat ELISA plates with 2 μg Poly(Glu-Tyr) in 100 μL PBS, store overnight at 4° C. • 2. Block plate with 150 μL of 5% BSA/PBS for 60 min. • 3. Wash plate twice with PBS, once with 50 mM Hepes buffer pH 7.4. • 4. Add 50 μl of the diluted kinase to all wells. (Purified kinase is diluted with Kinase Dilution Buffer. Final concentration should be 10 ng/well.) • 5. Add 25 μL of the test compound (in 4% DMSO) or DMSO alone (4% in dH2O) for controls to plate. • 6. Incubate the kinase/compound mixture for 15 minutes. • 7. Add 25 μL of 40 mM MnCl2 to the negative control wells. • 8. Add 25 μL ATP/MnCl2 mixture to the all other wells (except the negative controls). Incubate for 5 min. • 9. Add 25 μL 500 mM EDTA to stop reaction. • 10. Wash plate 3× with TBST. • 11. Add 100 μL rabbit polyclonal anti-Ptyr diluted 1:10,000 in Antibody Dilution Buffer to each well. Incubate, with shaking, at room temperature for one hour. • 12. Wash plate 3× with TBST. • 13. Dilute Biosource HRP conjugated anti-rabbit antibody 1: 6,000 in Antibody Dilution buffer. Add 100 μL per well and incubate at room temperature, with shaking, for one hour. • 14. Wash plate 1× with PBS. • 15. Add 100 μl of ABTS/H2O2 solution to each well. • 16. If necessary, stop the development reaction with the addition of 100 μl of 0.2M HCl per well. • 17. […]

[1] = purified GST fusion protein containing the Met kinase domain, poly(glu, tyr) 4:1 substrate, read-out: c-MET IC50

T1 sequence (P08581 1078-1345 limits assumed): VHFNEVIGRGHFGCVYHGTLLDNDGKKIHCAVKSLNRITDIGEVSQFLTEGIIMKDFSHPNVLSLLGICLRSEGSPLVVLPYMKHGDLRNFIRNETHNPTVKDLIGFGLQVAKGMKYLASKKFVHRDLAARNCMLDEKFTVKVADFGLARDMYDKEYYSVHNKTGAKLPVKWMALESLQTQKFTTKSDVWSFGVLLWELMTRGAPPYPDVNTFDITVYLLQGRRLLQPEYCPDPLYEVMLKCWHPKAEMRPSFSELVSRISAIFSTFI

Compound	IC50 [1] [nM]	IC50 [nM]
Oc1ccc(Cc2nnc3nc4[nH]c5ccccc5c4nn23)cc1 [Example 17, 4-(9H-1,2,3a,4,9,10-Hexaaza-cyclopenta[b]fluoren-3-ylmethyl)-phenol]	18	
Oc1ccc(Cc2nnc3nc4[nH]c5c(Cl)ccc(Cl)c5c4nn23)cc1 [Example 18, 4-(5,8-Dichloro-9H-1,2,3a,4,9,10-hexaaza-cyclopenta[b]fluoren-3-ylmethyl)-phenol]	36	
COc1ccc2[nH]c3nc4nnc(Cc5ccc(O)cc5)n4nc3c2c1Cl [Example 19, 4-(5-Chloro-6-methoxy-9H-1,2,3a,4,9,10-hexaaza-cyclopenta[b]fluoren-3-ylmethyl)-phenol]		12
COc1cc(Cl)c2[nH]c3nc4nnc(Cc5ccc(O)cc5)n4nc3c2c1Cl [Example 20, 4-(5,8-Dichloro-6-methoxy-9H-1,2,3a,4,9,10-hexaaza-cyclopenta[b]fluoren-3-ylmethyl)-phenol]	46	
Oc1ccc(Cc2nnc3nc4[nH]c5cccc(Cl)c5c4nn23)cc1 [Example 21, 4-(5-Chloro-9H-1,2,3a,4,9,10-hexaaza-cyclopenta[b]fluoren-3-ylmethyl)-phenol]	10	
Oc1ccc(Cc2nnc3nc4[nH]c5c(Cl)cccc5c4nn23)cc1 [Example 22, 4-(8-Chloro-9H-1,2,3a,4,9,10-hexaaza-cyclopenta[b]fluoren-3-ylmethyl)-phenol]	35	
Oc1ccc(Cc2nnc3nc4[nH]c5c(Cl)cc(Cl)c(Cl)c5c4nn23)cc1 [Example 23, 4-(5,6,8-Trichloro-9H-1,2,3a,4,9,10-hexaaza-cyclopenta[b]fluoren-3-ylmethyl)-phenol]	460	
Cc1ccc(C)c2c1[nH]c1nc3nnc(Cc4ccc(O)cc4)n3nc12 [Example 24, 4-(5,8-Dimethyl-9H-1,2,3a,4,9,10-hexaaza-cyclopenta[b]fluoren-3-ylmethyl)-phenol, dihydrate]	22	

More lines, now with the values ahead:

IC50 [1] [nM]	IC50 [nM]	Compound
55		Cc1cc(C)c2[nH]c3nc4nnc(Cc5ccc(O)cc5)n4nc3c2c1 [Example 25, 4-(6,8-Dimethyl-9H-1,2,3a,4,9,10-hexaaza-cyclopenta[b]fluoren-3-ylmethyl)-phenol]
25		Cc1cc(Cl)cc2c1[nH]c1nc3nnc(Cc4ccc(O)cc4)n3nc12 [Example 26, 4-(6-Chloro-8-methyl-9H-1,2,3a,4,9,10-hexaaza-cyclopenta[b]fluoren-3-ylmethyl)-phenol]
42		N[C@H]1CCN(C(=O)c2ccc3[nH]c4nc5nnc(Cc6ccc(F)cc6)n5nc4c3c2Cl)C1 [Example 34, [(3S)-3-Amino-pyrrolidin-1-yl]-[5-chloro-3-(4-fluoro-benzyl)-9H-1,2,3a,4,9,10-hexaaza-cyclopenta[b]fluoren-6-yl]-methanone]
28		Cc1cc(OCCN2CCOCC2)c(C)c2c1[nH]c1nc3nnc(Cc4ccc(O)cc4)n3nc12 [Example 35, 4-[5,8-Dimethyl-6-(2-morpholin-4-yl-ethoxy)-9H-1,2,3a,4,9,10-hexaaza-cyclopenta[b]fluoren-3-ylmethyl]-phenol]
560		Cc1cc(OCCN2CCOCC2)c(C)c2c1[nH]c1nc3nnc(Cc4ccc(F)cc4)n3nc12 [Example 36, 3-(4-Fluoro-benzyl)-5,8-dimethyl-6-(2-morpholin-4-yl-ethoxy)-9H-1,2,3a,4,9,10-hexaaza-cyclopenta[b]fluorine]
